Drawing on PubChem BioAssay AID624129 (Sanford-Burnham Center for Chemical Genomics, 2012), this text covers outcome, IC50 and inhibition for 18 compounds.

Active and inactive are the calls of the source. No rule for the calls is given here.

For orientation: IC50 means the concentration at which inhibition is half-maximal. For orientation: inhibition means the drop in the measured response relative to a control, in per cent.

The target in this experiment is C-X-C chemokine receptor type 6 (Homo sapiens) (UniProt O00574). The experiment is described as follows: potency against CXCR6 with APJ panel – cell-based, beta-arrestin, DiscoveRx, uHTS hits, dose response (AID 624129). The settings on record: CXCR6 beta-arrestin (DiscoveRx) antagonist cell assay; for outcome: CXCR6, dose range 1; for inhibition: CXCR6, run 2, dose range 1, at 79 µM (top of the series).

The mark [1] stands for this setting: CXCR6, dose range 1, mean IC50 across replicates.

C-X-C chemokine receptor type 6 (Homo sapiens), sequence (O00574 whole entry, looked up): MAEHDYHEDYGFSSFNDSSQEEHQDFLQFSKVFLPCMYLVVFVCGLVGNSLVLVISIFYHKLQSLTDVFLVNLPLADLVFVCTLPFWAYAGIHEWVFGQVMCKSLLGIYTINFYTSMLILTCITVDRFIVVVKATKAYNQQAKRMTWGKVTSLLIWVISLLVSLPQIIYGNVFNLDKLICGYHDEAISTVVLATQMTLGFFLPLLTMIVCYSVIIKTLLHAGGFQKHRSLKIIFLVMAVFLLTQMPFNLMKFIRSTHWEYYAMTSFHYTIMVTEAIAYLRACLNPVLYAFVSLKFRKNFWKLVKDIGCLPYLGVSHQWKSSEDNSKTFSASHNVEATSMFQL

As for `COc1cc(/C=C/[N+](=O)[O-])ccc1OC(=O)c1cc2ccccc2oc1=O`, the result was inactive and the inhibition worked out at 112%. This compound displayed a 50% inhibitory concentration (IC50) under setting [1] of 11.6 µM. This compound also displayed an IC50 (CXCR6, run 1, dose range 2) of 12.1 µM. Also, the IC50 (CXCR6, run 2, dose range 2) amounted to 11.2 µM.
For the compound `COc1cc(/C=C/[N+](=O)[O-])ccc1OC(=O)c1cccnc1`, the outcome was inactive and the inhibition stood at 108%. Further, under setting [1], the IC50 was 25.5 µM. Further, for the setting “CXCR6, run 1, dose range 2”, the IC50 came to 19.1 µM. Under “CXCR6, run 2, dose range 2”, this compound yielded an IC50 of 31.9 µM.
For the compound `CC(=O)Nc1nc2ccccc2n1CCOc1ccccc1Cl`, the outcome was inactive and the inhibition stood at 80.9%. Besides, under setting [1], the IC50 was 11.9 µM. Moreover, the half-maximal inhibitory concentration (IC50) (CXCR6, run 1, dose range 2) was 8.79 µM. Where the note is “CXCR6, run 2, dose range 2”, this compound showed an IC50 of 15 µM.
`Cc1ccccc1CS(=O)(=O)c1ncc(Cl)c(C(=O)Nc2ccc(F)cc2)n1`: the result was inactive and the inhibition was 109%. Under setting [1], this compound gave an IC50 of 17.1 µM. Moreover, for the setting “CXCR6, run 1, dose range 2”, the half-inhibitory concentration (IC50) was found to be 15.4 µM. The IC50 (CXCR6, run 2, dose range 2) was 18.9 µM.
Turning to `O=C(C(=Cc1ccc(F)cc1)C(=O)c1ccccc1)c1ccccc1`, the outcome was inactive and the inhibition came out at 112%. The same compound gave a half-maximal inhibitory concentration (IC50) under setting [1] of 13.7 µM. Also, the IC50 (CXCR6, run 1, dose range 2) amounted to 11.8 µM. This compound registered an IC50 (CXCR6, run 2, dose range 2) of 15.5 µM.
Consider `CCOc1ccc(/C=C/[N+](=O)[O-])c2ccccc12`, for which the outcome was inactive and the inhibition is 109%. Under setting [1], this compound had an IC50 of 17.2 µM. For the setting “CXCR6, run 1, dose range 2”, this compound showed an IC50 of 17.3 µM. The compound also showed an IC50 (CXCR6, run 2, dose range 2) of 17.1 µM.
For the compound `CN(C)/C=C/c1oc2ccc(O)cc2c1[N+](=O)[O-]`, the outcome was inactive and the inhibition worked out at 93.1%. Further, the IC50 under setting [1] came to 17.5 µM. Moreover, for the setting “CXCR6, run 1, dose range 2”, the IC50 came out at 18.5 µM. Also, for the setting “CXCR6, run 2, dose range 2”, the IC50 was found to be 16.4 µM.
As to `C=C1C(=O)[C@]23C[C@H]1CCC2[C@@]1(C)C(C[C@@H]3O)[C@](C)(C(=O)OC)CC[C@@H]1O` (stereo not given in full), the result was inactive and the inhibition is 109%. Further, under setting [1], the IC50 was 11.5 µM. This compound also registered an IC50 (CXCR6, run 1, dose range 2) of 11.6 µM. This compound registered an IC50 (CXCR6, run 2, dose range 2) of 11.4 µM.
On to `COc1ccc(C(=O)N/N=C/c2cccc3cccnc23)cc1`, for which the result was inactive and the inhibition came out at 60.1%. Under setting [1], this compound returned an IC50 of 13.5 µM. The IC50 (CXCR6, run 1, dose range 2) was determined as 12.6 µM. Besides, the IC50 (CXCR6, run 2, dose range 2) turned out to be 14.5 µM.
As to `CCOC(=O)c1ccc(NC(=O)c2nc(S(=O)(=O)Cc3ccccc3)ncc2Cl)cc1`, the outcome was inactive and the inhibition came out at 111%. In addition, the IC50 under setting [1] was found to be 12.9 µM. The IC50 (CXCR6, run 1, dose range 2) was 12.3 µM. Besides, the IC50 (CXCR6, run 2, dose range 2) came out at 13.5 µM.
Take `CS(=O)(=O)c1ccc(C(=O)OCC(=O)N2CCN(CCC3CCCCC3)CC2)cc1[N+](=O)[O-]`: the result was inactive and the inhibition is 111%. This compound came in with an IC50 under setting [1] of 11.2 µM. The compound further had an IC50 (CXCR6, run 1, dose range 2) of 10.6 µM. For the same compound, the IC50 (CXCR6, run 2, dose range 2) stood at 11.8 µM.
Taken in the same sequence, the figures for `COC(=O)c1ccc(C)c(-n2c(=O)n(Cc3ccccc3)c(=O)c3[nH]cnc32)c1` were “inactive”, 73%, 12.9 µM, 11.6 µM and 14.1 µM.
As to `CCC1=NN(C(=O)c2ccc([N+](=O)[O-])cc2)C(O)(c2ccccc2)C1` (stereo not given), the outcome was inactive and the inhibition was 91.7%. Moreover, the IC50 under setting [1] came out at 44.8 µM. The same compound gave a concentration for half-maximal inhibition (IC50) (CXCR6, run 1, dose range 2) of 25.2 µM. Further, the IC50 (CXCR6, run 2, dose range 2) is 64.4 µM.
As for `CN(CC(=O)Nc1cc(S(=O)(=O)N2CCCC2)ccc1Cl)Cc1cccs1`, the outcome was inactive and the inhibition was found to be 78.8%. The IC50 under setting [1] was determined as 11.5 µM. Besides, the IC50 (CXCR6, run 1, dose range 2) was determined as 11.4 µM. The IC50 (CXCR6, run 2, dose range 2) turned out to be 11.6 µM.
Regarding `Cc1cccc(Cc2cnc(N3C(=N)SC(C)C3=O)s2)c1` (stereo not given), the outcome was active and the inhibition came out at 41.4%. Under setting [1], this compound registered an IC50 of 7.79 µM. The IC50 (CXCR6, run 1, dose range 2) was 7.79 µM. This compound also yielded an IC50 (CXCR6, run 2, dose range 2) above 79 µM.
Turning to `COc1cc(/C=C2\SC(=O)N(c3ccc(Cl)cc3)C2=O)cc([N+](=O)[O-])c1O`, the result was inactive and the inhibition was 88.6%. The compound also showed an IC50 under setting [1] of 20.6 µM. The compound also returned an IC50 (CXCR6, run 1, dose range 2) of 12.8 µM. Besides, the IC50 (CXCR6, run 2, dose range 2) amounted to 28.4 µM.
For `COc1cc(/C=C/c2ccc3cccc(OC)c3n2)c(OC(C)=O)c([N+](=O)[O-])c1`, the result was inactive and the inhibition worked out at 78.8%. Further, the half-inhibitory concentration (IC50) under setting [1] was 28.4 µM. The compound further registered an IC50 (CXCR6, run 1, dose range 2) of 35 µM. In addition, the IC50 (CXCR6, run 2, dose range 2) turned out to be 21.8 µM.
Taken in the same sequence, the figures for `CCN(CC)CCn1c(N)c(S(=O)(=O)c2ccccc2)c2nc3ccccc3nc21` were “inactive”, 99.2%, 15.9 µM, 13.2 µM and 18.5 µM.
